{
  "source": "patent US5885592A",
  "about": "“Methods and pharmaceutical compositions for oral delivery of molecular iodine” (priority 1997, dated 1999)",
  "key": {"human": {"tested_on": "human", "conditions": "human oral consumption; cited from earlier work"}, "mammary tissue [1]": {"tested_on": "mammary tissue", "test": "Histologic grading of mammary tissue in iodine deficient rats, 2 week study (Example 8)", "type": "in vivo, Female Sprague-Dawley rats", "experimental": "Perchlorate-treated (400 mg/dL NaClO4) municipal tap water was provided ad libitum for the first five days of captivity. […] Each day for the five days preceding the initiation of testing, animals received estrogen (25 ug of 17-βestradiol) suspended in 100 ul of sesame oil injected IM. During the 2 week experiment estrogen (2.5 ug 17-βestradiol) suspended in 100 ul of sesame oil was injected daily. Vaginal smears were taken every other day to insure that rats achieved constant estrus throughout the experiment.\n(§1) Rats were dosed with molecular iodine once daily. Food was removed from the rats each morning and ten hours later, each rat was dosed with 80 ug/kg of molecular iodine. An equivalent dose of iodide (80 ug/kg) was given to a control group of rats. The negative control consisted of rats which were dosed with tap water. Rats were weighed daily. At the end of the 2 week study rats were sacrificed and microscopic sections of the mammary gland tissues were stained with hematoxylin and eosin prior to being read by a pathologist.\nEach group contained 10 animals.\nThe mammary tissue was graded for lobular hyperplasia, secretions, periductal fibrosis, and fibroadenomatous changes. The scoring system for lobular hyperplasia, secretions, periductal fibrosis graded as positive only those animals showing moderate to severe conditions. […] The results of this histological grading are shown below in tabular form."}, "[2]": {"test": "Body weight of iodine deficient rats, 2 week study (Example 8)", "conditions": "in g (unit assumed)"}, "mammary tissue [3]": {"tested_on": "mammary tissue", "test": "Histologic grading of mammary tissue in iodine deficient rats, 4 weeks (Example 12)", "type": "in vivo, Female Sprague-Dawley rats", "conditions": "for Fibroadenomata / Lobular hyperplasia / Periductal fibrosis / Secretion: 4 weeks", "experimental": "as §1, with “one of three concentrations 0.0010, 0.010 or 0.10 mg/kg” for “80 ug/kg”, “A” for “An equivalent”, “(100” for “(80”, “water.” for “water. Rats were weighed daily.”, “4 weeks” for “the 2 week study”\nSix groups of animals were examined: groups 1-3 received daily doses of one of three concentrations of molecular iodine; (4) received the normal diet without perchlorate treatment; (5) received the iodine deficient diet with a water gavage; and (6) received an iodine deficient diet and were dosed with iodide (100 ug/kg). […] The results of this histological grading are shown below in tabular form."}, "thyroid [4]": {"tested_on": "thyroid", "conditions": "male rats, cited from earlier work"}, "thyroid [5]": {"tested_on": "thyroid", "test": "Thyroid weight of rats after subchronic oral administration (Sherer et al., cited)", "type": "in vivo, male rats", "conditions": "compared with molecular iodine", "experimental": "The only scientific studies on the relative oral toxicity of molecular iodine and iodide was performed during the early 1990s (Karla Thrall, Ph.D. Thesis, \"Formation of Organic By-Products Following Consumption of Iodine Disinfected Drinking Water\", Summary and Conclusion Section, Oregon State University, Department of Chemistry, 1992). The weight of a mammals thyroid is one key diagnostic measure used to evaluate the toxicity of an iodine composition. […] Another way to state this is that it required ten time more molecular iodine than iodide to effect animal thyroid function with an orally administered iodine composition."}, "dysplastic mastodynia": {"tested_on": "dysplastic mastodynia", "conditions": "women with dysplastic mastodynia; cited from earlier work"}, "mammary glands": {"tested_on": "mammary glands", "conditions": "compared with iodide; cited from earlier work"}, "[6]": {"conditions": "function of pH; cited from earlier work"}, "thyroid hormones": {"tested_on": "thyroid hormones", "conditions": "repeated daily doses; no increase below; cited from earlier work"}},
  "data": [
    {"smiles": "I", "note": "[iodide]", "values": [
      {"measurement": "range of human consumption above which there is a health risk", "setting": "human", "result": "0.150 to 1.0", "unit": "mg/day"},
      {"measurement": "Fibroadenomata", "setting": "mammary tissue [1]; 80 ug/kg daily gavage, 2 weeks", "result": "4/10"},
      {"measurement": "secretion and fibroadenomata (result in words)", "setting": "mammary tissue [1]; 80 ug/kg daily gavage, 2 weeks", "result": "displayed increased secretion and fibroadenomata"},
      {"measurement": "Lobular hyperplasia", "setting": "mammary tissue [1]; po, 0.08 mg/kg, 336 h", "result": "4/10"},
      {"measurement": "Periductal fibrosis", "setting": "mammary tissue [1]; po, 0.08 mg/kg, 336 h", "result": "6/10"},
      {"measurement": "Secretion", "setting": "mammary tissue [1]; po, 0.08 mg/kg, 336 h", "result": "4/10"},
      {"measurement": "average body weight at end", "setting": "[2]; 80 ug/kg daily, end of 2 weeks", "result": "235±7.1"},
      {"measurement": "average body weight at start", "setting": "[2]; 80 ug/kg, start", "result": "214±6.5"},
      {"measurement": "Fibroadenomata", "setting": "mammary tissue [3]; 100 ug/kg daily", "result": "3/10"},
      {"measurement": "Lobular hyperplasia", "setting": "mammary tissue [3]; 100 ug/kg daily", "result": "4/10"},
      {"measurement": "Periductal fibrosis", "setting": "mammary tissue [3]; 100 ug/kg daily", "result": "5/10"},
      {"measurement": "Secretion", "setting": "mammary tissue [3]; 100 ug/kg daily", "result": "5/10"},
      {"measurement": "formation of fibroadenomata (in words)", "setting": "mammary tissue [3]; iodide 100 ug/kg daily", "result": "did not substantially alleviate the formation of fibroadenomata"},
      {"measurement": "increased thyroid weight, dose", "setting": "thyroid [4]; subchronic oral administration", "result": 10, "unit": "mg/kg"},
      {"measurement": "concentration affecting thyroid weight relative to molecular iodine (fold less)", "setting": "thyroid [5]", "result": 10, "unit": "fold"}
    ]},
    {"smiles": "II", "note": "[iodine]", "values": [
      {"measurement": "improvement rate", "setting": "dysplastic mastodynia", "result": 71, "unit": "%"}
    ]},
    {"smiles": "II", "note": "[molecular iodine]", "values": [
      {"measurement": "diminishing ductal hyperplasia and perilobular fibrosis in the mammary glands", "setting": "mammary glands", "result": "distinctly more effective in diminishing ductal hyperplasia and perilobular fibrosis in the mammary glands than iodide"},
      {"measurement": "stability in water", "setting": "[6]", "result": "unstable in water"},
      {"measurement": "dose at which an increase in steady state levels of thyroid hormones was measured", "setting": "thyroid hormones", "result": "10 mg per kilogram of body weight"},
      {"measurement": "formation of fibroadenomata and periductal fibrosis (in words)", "setting": "mammary tissue [3]; 1 ug/kg daily", "result": "did not substantially alleviate the formation of fibroadenomata and periductal fibrosis"},
      {"measurement": "Fibroadenomata", "setting": "mammary tissue [3]; 1 ug/kg daily", "result": "4/10"},
      {"measurement": "Lobular hyperplasia", "setting": "mammary tissue [3]; 1 ug/kg daily", "result": 4.10},
      {"measurement": "Periductal fibrosis", "setting": "mammary tissue [3]; 1 ug/kg daily", "result": "6/10"},
      {"measurement": "Secretion", "setting": "mammary tissue [3]; 1 ug/kg daily", "result": "6/10"},
      {"measurement": "Fibroadenomata", "setting": "mammary tissue [3]; 10 ug/kg daily", "result": "1/10"},
      {"measurement": "Lobular hyperplasia", "setting": "mammary tissue [3]; 10 ug/kg daily", "result": "2/10"},
      {"measurement": "Periductal fibrosis", "setting": "mammary tissue [3]; 10 ug/kg daily", "result": "4/10"},
      {"measurement": "Secretion", "setting": "mammary tissue [3]; 10 ug/kg daily", "result": "4/10"},
      {"measurement": "Fibroadenomata", "setting": "mammary tissue [3]; 100 ug/kg daily", "result": "1/10"},
      {"measurement": "Lobular hyperplasia", "setting": "mammary tissue [3]; 100 ug/kg daily", "result": "2/10"},
      {"measurement": "Periductal fibrosis", "setting": "mammary tissue [3]; 100 ug/kg daily", "result": "2/10"},
      {"measurement": "Secretion", "setting": "mammary tissue [3]; 100 ug/kg daily", "result": "3/10"},
      {"measurement": "formation of fibroadenomata and periductal fibrosis (in words)", "setting": "mammary tissue [3]; 10 and 100 ug/kg daily", "result": "substantially reduced the formation of fibroadenomata and periductal fibrosis"},
      {"measurement": "did not effect thyroid weight even at concentrations of", "setting": "thyroid [4]; no effect up to this dose, oral", "result": 100, "unit": "mg/kg"}
    ]}
  ]
}
